{
  "source": "patent US8231888B2",
  "about": "“Isoxazolines for controlling invertebrate pests” (priority 2005, dated 2012)",
  "assay_type_in_all_cases": "in vivo",
  "key": {"[1]": {"test_system": "western flower thrips (Frankliniella occidentalis)", "assay": "Test D: control of western flower thrips on Soleil bean plant, contact and/or systemic", "details": "sprayed at 250 and/or 50 ppm, 6 days, 25° C.; no asterisk (not limited to 250 ppm)", "procedure": "(§1) Test compounds were formulated using a solution containing 10% acetone, 90% water and 300 ppm X-77™ Spreader Lo-Foam Formula non-ionic surfactant containing alkylarylpolyoxyethylene, free fatty acids, glycols and isopropanol (Loveland Industries, Inc. Greeley, Colo., USA). The formulated compounds were applied in 1 mL of liquid through a SUJ2 atomizer nozzle with 1/8 JJ custom body (Spraying Systems Co. Wheaton, Ill., USA) positioned 1.27 cm (0.5 inches) above the top of each test unit. All experimental compounds in these tests were sprayed at 250 and/or 50 ppm, and the test was replicated three times. After spraying of the formulated test compound, each test unit was allowed to dry for 1 h and then a black, screened cap was placed on top. The test units were held for 6 days in a growth chamber at 25° C. and 70% relative humidity. Plant feeding damage was then visually assessed based on foliage consumed and a pest mortality rating was also counted and calculated for each test unit.\nFor evaluating control of the western flower thrips (Frankliniella occidentalis) through contact and/or systemic means, the test unit consisted of a small open container with a 5-7 day old Soleil Bean plant inside. Test compounds were formulated and sprayed at 250 and/or 50 ppm, and the test was replicated three times as described for Test A. After spraying, the test units were allowed to dry for 1 hour and then 22-27 adult thrips were added to each unit and then a black, screened cap was placed on top. The test units were held for 6 days at 25° C. and 45-55% relative humidity. A mortality rating was assessed along with a plant damage rating for each test unit."}, "[2]": {"test_system": "fall armyworm (Spodoptera frugiperda)", "assay": "Test B: control of fall armyworm on corn (maize) plant, foliar spray", "details": "sprayed at 250 and/or 50 ppm; no asterisk (not limited to 250 ppm)", "procedure": "as §1\nFor evaluating control of fall armyworm (Spodoptera frugiperda) the test unit consisted of a small open container with a 4-5-day-old corn (maize) plant inside. This was pre-infested (using a core sampler) with 10-15 1-day-old larvae on a piece of insect diet. Test compounds were formulated and sprayed at 250 and/or 50 ppm as described for Test A and replicated three times. After spraying, the test units were maintained in a growth chamber and then the control efficacy was rated for each test unit as described for Test A."}, "[3]": {"test_system": "diamondback moth (Plutella xylostella)", "assay": "Test A: control of diamondback moth on radish plant, foliar spray", "details": "sprayed at 250 and/or 50 ppm, 6 days, 25° C.; no asterisk (not limited to 250 ppm)", "from_the_text": "For evaluating control of diamondback moth (Plutella xylostella) the test unit consisted of a small open container with a 12-14-day-old radish plant inside. This was pre-infested with about 50 neonate larvae that were dispensed into the test unit via corn cob grits using a bazooka inoculator. The larvae moved onto the test plant after being dispensed into the test unit.\nas §1"}, "[4]": {"test_system": "cat flea (Ctenocephalides felis Bouche)", "assay": "Test E: control of cat flea on orally dosed CD-1 mouse", "details": "10 mg/kg oral, fleas applied 2 h after dosing, mortality 48 hours after flea application", "procedure": "For evaluating control of the cat flea (Ctenocephalides felis Bouche), a CD-1® mouse (about 30 g, male, obtained from Charles River Laboratories, Wilmington, Mass.) was orally dosed with a test compound in an amount of 10 mg/kg solubilized in propylene glycol/glycerol formal (60:40). Two hours after oral administration of the test compound, approximately 8 to 16 adult fleas were applied to each mouse. The fleas were then evaluated for mortality 48 hours after flea application to the mouse."}},
  "data": [
    {"smiles": "O=C(NCc1ccccn1)c1ccc(C2=NOC(c3cc(Cl)cc(Cl)c3)(C(F)(F)F)C2)c2ccccc12", "note": "(stereo not shown) [Compound 2]", "values": [
      {"measurement": "control efficacy (20% or less feeding damage or 80% or more mortality)", "setting": "[1]", "value": "very good to excellent levels of control efficacy"},
      {"measurement": "control efficacy (20% or less feeding damage or 80% or more mortality)", "setting": "[2]", "value": "very good to excellent levels of control efficacy"},
      {"measurement": "control efficacy (20% or less feeding damage or 80% or more mortality)", "setting": "[3]", "value": "very good to excellent levels of control efficacy"},
      {"measurement": "flea mortality", "setting": "[4]", "value": "≥ 30", "unit": "%"}
    ]},
    {"smiles": "O=C(NCc1ccccn1)c1ccc(C2=NOC(c3cc(Cl)cc(Cl)c3)(C(F)(F)F)C2)c2ccncc12", "note": "(stereo not shown) [Compound 104, 5-[5-(3,5-dichlorophenyl)-4,5-dihydro-5-(trifluoromethyl)-3-isoxazolyl]-N-(2-pyridinylmethyl)-8-isoquinolinecarboxamide]", "values": [
      {"measurement": "control efficacy (20% or less feeding damage or 80% or more mortality)", "setting": "[1]", "value": "very good to excellent levels of control efficacy"},
      {"measurement": "control efficacy (20% or less feeding damage or 80% or more mortality)", "setting": "[2]", "value": "very good to excellent levels of control efficacy"},
      {"measurement": "control efficacy (20% or less feeding damage or 80% or more mortality)", "setting": "[3]", "value": "very good to excellent levels of control efficacy"}
    ]}
  ]
}
